Experiment: mn = molality of the nth substance listed, in mol/kg
Details: 101 kPa, Liquid; for viscosity: Capillary tube (Ostwald / Ubbelohde) method

O=C([O-])[C@H](O)[C@@H](O)C(=O)[O-].[K+].[K+] [dipotassium L-tartrate] + O
Details | mass density, 298.15 K [kg/m3] | mass density, 308.15 K [kg/m3] | mass density, 318.15 K [kg/m3] | speed of sound, 298.15 K [m/s] | viscosity, 298.15 K [mPa·s] | viscosity, 308.15 K [mPa·s] | viscosity, 318.15 K [mPa·s]
m1 = 0.0222 | – | – | – | – | 0.879 | 0.718 | 0.595
m1 = 0.0312 | – | – | – | – | 0.892 | 0.723 | 0.601
m1 = 0.0398 | 1002.88 | 999.78 | 995.909 | 1502.5 | – | – | –
m1 = 0.0498 | 1004.29 | 1001.18 | 997.282 | 1503.7 | – | – | –
m1 = 0.0516 | – | – | – | – | 0.902 | 0.731 | 0.609
m1 = 0.0615 | 1005.99 | 1002.85 | 998.942 | 1505.4 | – | – | –
m1 = 0.0697 | 1007.18 | 1004.01 | 1000.09 | 1506.5 | – | – | –
m1 = 0.073 | – | – | – | – | 0.911 | 0.737 | 0.612
m1 = 0.0797 | 1008.56 | 1005.39 | 1001.44 | 1508.8 | – | – | –
m1 = 0.0897 | 1010.01 | 1006.8 | 1002.86 | 1509.5 | – | – | –
m1 = 0.0909 | – | – | – | – | 0.917 | 0.75 | 0.623
m1 = 0.0996 | 1011.42 | 1008.21 | 1004.24 | 1510.3 | – | – | –
m1 = 0.1822 | – | – | – | – | 0.948 | 0.773 | 0.639
m1 = 0.2842 | – | – | – | – | 0.985 | 0.799 | 0.665
m1 = 0.3 | 1039.02 | 1035.42 | 1031.19 | 1535.7 | – | – | –
m1 = 0.3843 | – | – | – | – | 1.012 | 0.821 | 0.693
m1 = 0.4639 | – | – | – | – | 1.04 | 0.847 | 0.705
m1 = 0.4985 | 1064.81 | 1060.93 | 1056.45 | 1559.5 | – | – | –
m1 = 0.6883 | – | – | – | – | 1.125 | 0.916 | 0.764
m1 = 0.6922 | 1088.8 | 1084.65 | 1079.98 | 1582.2 | – | – | –
m1 = 0.8934 | 1112.36 | 1108 | 1103.17 | 1605.2 | – | – | –
m1 = 1.098 | – | – | – | – | 1.294 | 1.054 | 0.879
m1 = 1.284 | 1155.12 | 1150.41 | 1145.3 | 1648.3 | – | – | –
m1 = 1.468 | – | – | – | – | 1.474 | 1.206 | 1.006
m1 = 1.579 | 1185.12 | 1180.16 | 1174.96 | 1680.5 | – | – | –
m1 = 1.878 | – | – | – | – | 1.71 | 1.389 | 1.157
m1 = 1.965 | 1221.2 | 1216.05 | 1210.59 | 1718.3 | – | – | –
m1 = 2.443 | 1262.59 | 1257.21 | 1251.59 | 1764 | – | – | –
m1 = 2.602 | – | – | – | – | 2.243 | 1.801 | 1.483
m1 = 2.923 | 1299.6 | 1294.09 | 1288.34 | 1805.2 | – | – | –
m1 = 3.391 | 1331.8 | 1326.15 | 1320.32 | 1841.5 | – | – | –
m1 = 3.405 | – | – | – | – | 3.301 | 2.613 | 2.12
m1 = 3.858 | 1362.45 | 1356.74 | 1350.83 | 1876.2 | – | – | –
m1 = 4.077 | – | – | – | – | 4.296 | 3.367 | 2.7
m1 = 4.324 | 1389.87 | 1384.06 | 1378.1 | 1907 | – | – | –
m1 = 4.785 | 1414.66 | 1408.83 | 1402.83 | 1935.4 | – | – | –
m1 = 5.188 | – | – | – | – | 6.378 | 4.841 | 3.829
m1 = 5.238 | 1437.73 | 1431.81 | 1425.78 | 1960.6 | – | – | –
m1 = 5.378 | – | – | – | – | 7.066 | 5.339 | 4.176
m1 = 5.692 | 1459.07 | 1453.12 | 1447.06 | 1984.8 | – | – | –

Reference: the NIST ThermoML archive (doi:10.1021/je700751a)
